Laboratory results as given in USRE48461E1, “Modulation of androgen receptor expression” (Ionis Pharmaceuticals, Inc., priority 2012, dated 2021).

Legend:
Format in all cases: cell-based, human
PSA mRNA [1] = test: PSA expression in VCaP cells; conditions: RNAiMax, 48 hrs
22RV1 cells [2] = test: 22RV1 cell proliferation with/without DHT (MTT); conditions: 5 days; for Percent inhibition of 22RV1 cell proliferation: RNAiMAX
Method: 22RV1cells were plated at 1,500 cells per well. […] Separate sets of cells, also treated with each of the antisense oligonucleotides, were treated with DHT added on day 1 at a final concentration of 1 nM. After a treatment period of 5 days, the proliferative ability of the cancer cells was measured using the standard MTT assay. Results are presented in Table 69 as percent inhibition of proliferation, relative to non-treated cells.

VCaP cells = test: VCaP cell proliferation; conditions: 5 days; for Proliferation (% untreated control): VCaP cells
How it was run: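 VCaP cells treated 5 days in complete medium or charcoal-stripped serum medium with 1 nM DHT; proliferation read by CellTiter 96 AQueous One or CellTiter-Glo.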

cleaved PARP = test: Cleaved PARP western blot in VCaP cells
TMPRSS2 mRNA [3] = test: TMPRSS2 expression in LNCaP cells (complete, CSS+DHT medium); conditions: for Percent inhibition of TMPRSS2 expression in LNCaP cells cultured in CSS + DHT medium: CSS + DHT (1 nM) medium, 48 hrs; for Percent inhibition of TMPRSS2 expression in LNCaP cells cultured in complete medium: 48 hours
How it was run: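 LNCaP cells treated with antisense oligonucleotides, ISIS 549148 as negative control; AR, PSA and TMPRSS2 RNA measured after 48 h. Complete medium used 1,000 cells/well; stripped-serum condition used 2,000 cells/well in phenol red-free RPMI with 5% charcoal-stripped serum, with 1 nM DHT (final) added 4 h after treatment.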

TMPRSS2 mRNA [4] = test: TMPRSS2 mRNA levels in LMR20 cells; conditions: with or without DHT/R1881
Method: LMR20 cells were plated at 1,500 cells per well in phenol red-free medium with CSS.

22RV1 cells [5] = test: 22RV1 cell proliferation (Example 32); conditions: 5 days; for Proliferation (% untreated control): 22RV1 cells, complete medium
How it was run: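 Cells were treated for 5 days in complete medium. Proliferation was then read with a tetrazolium (AQueous One) or ATP-luminescence (CellTiter-Glo) assay.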

PSA mRNA [6] = test: PSA expression in C4-2 cells; conditions: 48 hrs; for Percent inhibition of PSA expression: C4-2 cells, CSS + DHT medium
Method: Cells were plated at 1,000 cells per well. […] After an incubation period of 48 hrs, RNA levels of AR, PSA and TMPRSS2 were measured.
Cells were plated at 2,000 cells per well and cultured in CSS media with 1 nM DHT. […] After an incubation period of 48 hrs, RNA levels of AR, PSA and TMPRSS2 were measured.

TTGATTTAATGGTTGC [ISIS 560131] (MOE and (S)-cEt gapmer chemistry, further chemistry not given here) [targets intron 1]
Percent inhibition of PSA expression (PSA mRNA [1]; CSS + DHT medium, 1.34 nM): 0%
Percent inhibition of PSA expression (PSA mRNA [1]; CSS + DHT medium, 4.0 nM): 35%
Percent inhibition of PSA expression (PSA mRNA [1]; CSS + DHT medium, 13.4 nM): 69%
Percent inhibition of PSA expression (PSA mRNA [1]; CSS + DHT medium, 40 nM): 73%
Percent inhibition of PSA expression (PSA mRNA [1]; complete medium, 1.34 nM): 2%
Percent inhibition of PSA expression (PSA mRNA [1]; complete medium, 4.0 nM): 24%
Percent inhibition of PSA expression (PSA mRNA [1]; complete medium, 13.4 nM): 35%
Percent inhibition of PSA expression (PSA mRNA [1]; complete medium, 40 nM): 46%
Percent inhibition of 22RV1 cell proliferation (22RV1 cells [2]; +DHT (1 nM), ASO 1.34 nM): 0%
Percent inhibition of 22RV1 cell proliferation (22RV1 cells [2]; +DHT (1 nM), ASO 4.0 nM): 1%
Percent inhibition of 22RV1 cell proliferation (22RV1 cells [2]; +DHT (1 nM), ASO 13.4 nM): 13%
Percent inhibition of 22RV1 cell proliferation (22RV1 cells [2]; +DHT (1 nM), ASO 40.0 nM): 34%
22RV1 cell proliferation (22RV1 cells [2]; with or without 1 nM DHT): significantly inhibited prostate cancer cell proliferation even in the presence of AR activator, DHT, compared to the control
Percent inhibition of 22RV1 cell proliferation (22RV1 cells [2]; −DHT, ASO 1.34 nM): 0%
Percent inhibition of 22RV1 cell proliferation (22RV1 cells [2]; −DHT, ASO 4.0 nM): 2%
Percent inhibition of 22RV1 cell proliferation (22RV1 cells [2]; −DHT, ASO 13.4 nM): 29%
Percent inhibition of 22RV1 cell proliferation (22RV1 cells [2]; −DHT, ASO 40.0 nM): 54%
Proliferation (% untreated control) (VCaP cells; CSS + DHT medium, 1.34 nM): 95 % untreated control
Proliferation (% untreated control) (VCaP cells; CSS + DHT medium, 4.0 nM): 65 % untreated control
Proliferation (% untreated control) (VCaP cells; CSS + DHT medium, 13.4 nM): 42 % untreated control
Proliferation (% untreated control) (VCaP cells; CSS + DHT medium, 40 nM): 37 % untreated control
Proliferation (% untreated control) (VCaP cells; complete medium, 1.34 nM): 98 % untreated control
Proliferation (% untreated control) (VCaP cells; complete medium, 4.0 nM): 66 % untreated control
Proliferation (% untreated control) (VCaP cells; complete medium, 13.4 nM): 53 % untreated control
Proliferation (% untreated control) (VCaP cells; complete medium, 40 nM): 48 % untreated control
proliferation of VCaP cells (VCaP cells; complete medium or CSS+1 nM DHT): reduced proliferation of the cells in a dose dependent compared to the control
cleaved PARP levels (western blot) (cleaved PARP): increased in a dose-dependent manner
Percent inhibition of TMPRSS2 expression in LNCaP cells cultured in CSS + DHT medium (TMPRSS2 mRNA [3]; 0.04 μM): 6%
Percent inhibition of TMPRSS2 expression in LNCaP cells cultured in CSS + DHT medium (TMPRSS2 mRNA [3]; 0.2 μM): 11%
Percent inhibition of TMPRSS2 expression in LNCaP cells cultured in CSS + DHT medium (TMPRSS2 mRNA [3]; 1 μM): 26%
Percent inhibition of TMPRSS2 expression in LNCaP cells cultured in CSS + DHT medium (TMPRSS2 mRNA [3]; 5.0 μM): 64%
Percent inhibition of TMPRSS2 expression in LNCaP cells cultured in complete medium (TMPRSS2 mRNA [3]; 0.04 μM): 0%
Percent inhibition of TMPRSS2 expression in LNCaP cells cultured in complete medium (TMPRSS2 mRNA [3]; 0.2 μM): 25%
Percent inhibition of TMPRSS2 expression in LNCaP cells cultured in complete medium (TMPRSS2 mRNA [3]; 1 μM): 50%
Percent inhibition of TMPRSS2 expression in LNCaP cells cultured in complete medium (TMPRSS2 mRNA [3]; 5.0 μM): 51%
TMPRSS2 mRNA levels in LMR20 cells (TMPRSS2 mRNA [4]): reduced PSA levels and TMPRSS2 more extensively than the LNA gapmer ISIS 554221 or MDV3100
Proliferation (% untreated control) (22RV1 cells [5]; 1.34 nM): 94 % untreated control
Proliferation (% untreated control) (22RV1 cells [5]; 4.0 nM): 72 % untreated control
Proliferation (% untreated control) (22RV1 cells [5]; 13.4 nM): 50 % untreated control
Proliferation (% untreated control) (22RV1 cells [5]; 40 nM): 17 % untreated control
proliferation of 22RV1 cells (22RV1 cells [5]): reduced proliferation of the cells in a dose dependent compared to the control
Percent inhibition of PSA expression (PSA mRNA [6]; 0.04 μM): 10%
Percent inhibition of PSA expression (PSA mRNA [6]; 0.2 μM): 24%
Percent inhibition of PSA expression (PSA mRNA [6]; 1 μM): 49%
Percent inhibition of PSA expression (PSA mRNA [6]; 5.0 μM): 74%
Percent inhibition of PSA expression in C4-2 cells cultured in complete medium (PSA mRNA [6]; 0.04 μM): 48%
Percent inhibition of PSA expression in C4-2 cells cultured in complete medium (PSA mRNA [6]; 0.2 μM): 78%
Percent inhibition of PSA expression in C4-2 cells cultured in complete medium (PSA mRNA [6]; 1 μM): 88%
Percent inhibition of PSA expression in C4-2 cells cultured in complete medium (PSA mRNA [6]; 5.0 μM): 89%
